The experiment deals with Recombinant Human ENPP-1 Protein (Homo sapiens (Human), UniProt P22413). As to the kind of experiment: ENPP1 Inhibition Assay. The class given is biochemical. As to conditions: substrate thymidine 5′-monophosphate p-nitrophenol ester, absorbance at 405 nm. Here is the method: 1. ENPP1 Inhibition Assay
Recombinant Human ENPP-1 Protein, sequence (P22413 whole entry): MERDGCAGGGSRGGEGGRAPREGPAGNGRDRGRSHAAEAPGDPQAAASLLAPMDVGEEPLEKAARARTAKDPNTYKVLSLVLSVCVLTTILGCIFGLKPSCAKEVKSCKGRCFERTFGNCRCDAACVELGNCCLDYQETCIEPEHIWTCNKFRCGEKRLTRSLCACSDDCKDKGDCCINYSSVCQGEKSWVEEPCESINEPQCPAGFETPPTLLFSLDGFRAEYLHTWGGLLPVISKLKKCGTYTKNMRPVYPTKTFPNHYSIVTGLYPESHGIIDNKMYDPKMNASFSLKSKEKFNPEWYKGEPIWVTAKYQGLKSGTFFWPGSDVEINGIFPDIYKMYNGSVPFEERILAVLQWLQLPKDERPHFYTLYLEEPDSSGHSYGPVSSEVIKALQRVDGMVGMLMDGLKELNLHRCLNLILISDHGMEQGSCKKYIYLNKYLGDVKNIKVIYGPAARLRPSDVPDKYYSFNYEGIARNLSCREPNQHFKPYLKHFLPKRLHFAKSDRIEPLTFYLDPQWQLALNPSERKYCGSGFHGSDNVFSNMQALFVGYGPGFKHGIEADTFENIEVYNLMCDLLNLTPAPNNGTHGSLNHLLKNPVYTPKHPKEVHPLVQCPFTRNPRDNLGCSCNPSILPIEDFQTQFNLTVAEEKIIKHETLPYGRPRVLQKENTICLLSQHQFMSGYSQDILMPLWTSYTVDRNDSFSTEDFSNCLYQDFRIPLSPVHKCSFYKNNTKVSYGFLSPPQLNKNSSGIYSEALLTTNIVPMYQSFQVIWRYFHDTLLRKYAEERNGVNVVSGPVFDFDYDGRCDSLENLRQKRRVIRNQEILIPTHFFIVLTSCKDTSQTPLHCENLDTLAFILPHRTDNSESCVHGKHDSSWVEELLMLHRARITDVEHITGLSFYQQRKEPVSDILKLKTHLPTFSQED
Materials: • Assay Buffer: 1 mM CaCl2, 0.2 mM ZnCl2, 50 mM Tris, pH 9.0 • Substrate: 8 mM Thymidine 5′-monophosphate p-nitrophenol ester sodium salt (Sigma Cat # T4510) • Enzyme: 5 ng/μL Recombinant Human ENPP-1 Protein (R&D Cat #6136-EN-010) DMSO • 96-well clear assay plates
An eight point serial dilution of drugs was prepared in 10× in assay buffer with the final assay concentrations starting at 10 μM, 3 μM, 1 μM, 0.3 μM . . . 0 μM. A dilution of DMSO was included as a control. The assay plate was set up as follows with each well in duplicate: 81 μL assay buffer+10 μL ENPP1 inhibitor or DMSO+5 μL Substrate+4 μL Enzyme. Both the enzyme and substrate were added to opposite sides of the well to ensure that there was no interaction until all wells had both components. The plate was then centrifuged gently for 10 seconds, followed by an incubation at 37° C. for 45 minutes. The reaction was quantified by measuring absorbance at 405 nm using the Envision.
IC50 values are determined using GraphPad Prism 5 software. The data were entered as an X-Y plot into the software as percent inhibition for each concentration of the drug. The concentration values of the drug were log transformed and the nonlinear regression was carried out using the “sigmoidal dose-response (variable slope)” option within the GraphPad software to model the data and calculate IC50 values. The IC50 values reported are the concentration of drug at which 50% inhibition was reached.
Turning to `COc1cc2nc(NC(=O)CSc3nc4cc(Cl)ncc4[nH]3)sc2cc1OC` [Compound 54, 2-((6-Chloro-3H-imidazo[4,5-c]pyridin-2-yl)thio)-N-(5,6-dimethoxybenzo[d]thiazol-2-yl)acetamide], the IC50 came out at 5.73 µM. In the case of `O=C(CSc1nc2cc(Cl)ncc2[nH]1)Nc1nc2ccccc2s1` [Compound 62, N-(Benzo[d]thiazol-2-yl)-2-((6-chloro-3H-imidazo[4,5-c]pyridin-2-yl)thio)acetamide] it was 10.9 µM; in that of `O=C(CSc1nc2cnc(Cl)cc2[nH]1)Nc1ccc(O)cc1` [Compound 33, 2-((6-chloro-1H-imidazo[4,5-c]pyridin-2-yl)thio)-N-(4-hydroxyphenyl)acetamide], 7.92 µM. The same measure for `COc1cc(NC(=O)CSc2nc3cc(Cl)ncc3[nH]2)ccc1OC(F)F` [Compound 29, 2-((6-Chloro-1H-imidazo[4,5-c]pyridin-2-yl)thio)-N-(4-(difluoromethoxy)-3-methoxyphenyl)acetamide]: 1.16 µM; for `COc1cnc(NC(=O)CSc2nc3cc(Cl)ncc3[nH]2)cc1OC` [Compound 85, 2-((6-chloro-1H-imidazo[4,5-c]pyridin-2-yl)thio)-N-(4,5-dimethoxypyridin-2-yl)acetamide]: 0.266 µM. Consider `COc1ccc(NC(=O)CSc2nc3cc(Cl)ncc3[nH]2)nc1OC` [Compound 87, 2-((6-chloro-1H-imidazo[4,5-c]pyridin-2-yl)thio)-N-(5,6-dimethoxypyridin-2-yl)acetamide], for which the IC50 came to 1.98 µM. The same measure for `COc1ccc(NC(=O)CSc2nc3cnc(Cl)c(C)c3[nH]2)cc1OC` [Compound 52, 2-((6-Chloro-7-methyl-1H-imidazo[4,5-c]pyridin-2-yl)thio)-N-(3,4-dimethoxyphenyl)acetamide]: 1.14 µM; for `COc1ccc(NC(=O)CSc2nc3cc(Cl)ncc3[nH]2)cc1[N+](=O)[O-]` [Compound 83, 2-((6-Chloro-3H-imidazo[4,5-c]pyridin-2-yl)thio)-N-(4-methoxy-3-nitrophenyl)acetamide]: 4.55 µM. In the case of `Cc1cncc2[nH]c(SCC(=O)Nc3ccc4c(c3)OCO4)nc12` [Compound 10, N-(benzo[d][1,3]dioxol-5-yl)-2-((7-methyl-1H-imidazo[4,5-c]pyridin-2-yl)thio)acetamide] it was 50 µM; in that of `Cc1c(C#N)ncc2[nH]c(SCC(=O)Nc3ccc(F)c(O)c3)nc12` [Compound 79, 2-((6-Cyano-7-methyl-3H-imidazo[4,5-c]pyridin-2-yl)thio)-N-(4-fluoro-3-hydroxyphenyl)acetamide], 6.52 µM; in that of `O=C(CSc1nc2cc(Cl)ncc2[nH]1)Nc1ccc(OC(F)F)cc1` [Compound 40, 2-((6-Chloro-3H-imidazo[4,5-c]pyridin-2-yl)thio)-N-(4-(difluoromethoxy)phenyl)acetamide], 33.6 µM.

On to `O=C(CSc1nc2cc(Cl)ncc2[nH]1)Nc1ccc2c(c1)OCO2` [Compound 7, N-(benzo[d][1,3]dioxol-5-yl)-2-((6-chloro-1H-imidazo[4,5-c]pyridin-2-yl)thio)acetamide], for which the IC50 was more than 50 µM. In the case of `COc1ccc(NC(=O)CSc2nc3c(C)c(C#N)ncc3[nH]2)cc1OC` [Compound 77, 2-((6-Cyano-7-methyl-3H-imidazo[4,5-c]pyridin-2-yl)thio)-N-(3,4-dimethoxyphenyl)acetamide] it was 0.265 µM. In the case of `COc1ccc(NC(=O)CSc2nc3cc(Cl)ncc3[nH]2)cn1` [Compound 72, 2-((6-chloro-3H-imidazo[4,5-c]pyridin-2-yl)thio)-N-(6-methoxypyridin-3-yl)acetamide] it was 3.29 µM; in that of `COc1ccc(NC(=O)CSc2nc3cc(Cl)ncc3[nH]2)cc1OC` [Compound 3, 2-((6-Chloro-3H-imidazo[4,5-c]pyridin-2-yl)thio)-N-(3,4-dimethoxyphenyl)acetamide], 0.58 µM. Regarding `COc1ccc(NC(=O)CSc2nc3cc(C#N)ncc3[nH]2)cc1O` [Compound 67, 2-((6-Cyano-3H-imidazo[4,5-c]pyridin-2-yl)thio)-N-(3-hydroxy-4-methoxyphenyl)acetamide], the IC50 was 0.179 µM. The same measure for `COc1ccc(NC(=O)C(C)Sc2nc3cnc(Cl)cc3[nH]2)cc1OC` (centres unmarked) [Compound 14, 2-((6-Chloro-1H-imidazo[4,5-c]pyridin-2-yl)thio)-N-(3,4-dimethoxyphenyl)propanamide]: 3.52 µM; for `COc1ccc(NC(=O)CSc2nc3cnc(Cl)cc3[nH]2)cc1F` [Compound 27, 2-((6-Chloro-1H-imidazo[4,5-c]pyridin-2-yl)thio)-N-(3-fluoro-4-methoxyphenyl)acetamide]: 0.4 µM. The same measure for `Cc1c(Cl)ncc2nc(SCC(=O)Nc3ccc(F)c(O)c3)[nH]c12` [Compound 51, 2-((6-Chloro-7-methyl-1H-imidazo[4,5-c]pyridin-2-yl)thio)-N-(4-fluoro-3-hydroxyphenyl)acetamide]: 1.27 µM; for `COc1ccc(NC(=O)CSc2nc3c(C)cncc3[nH]2)cc1OC` [Compound 9, N-(3,4-dimethoxyphenyl)-2-((7-methyl-1H-imidazo[4,5-c]pyridin-2-yl)thio)acetamide]: 4.46 µM.

As for `COc1ccc(NC(=O)CS(=O)(=O)c2nc3cnc(Cl)cc3[nH]2)cc1F` [Compound 70, 2-((6-chloro-1H-imidazo[4,5-c]pyridin-2-yl)sulfonyl)-N-(3-fluoro-4-methoxyphenyl)acetamide], the IC50 is 30.2 µM. In the case of `COc1nc(NC(=O)CSc2nc3c(C)c(C#N)ncc3[nH]2)ccc1O` [Compound 96, 2-((6-cyano-7-methyl-3H-imidazo[4,5-c]pyridin-2-yl)thio)-N-(5-hydroxy-6-methoxypyridin-2-yl)acetamide] it was 2.06 µM. The same measure for `COc1ccc(NC(=O)CSc2nc3cnc(Cl)c(C)c3[nH]2)cc1F` [Compound 50, 2-((6-Chloro-7-methyl-1H-imidazo[4,5-c]pyridin-2-yl)thio)-N-(3-fluoro-4-methoxyphenyl)acetamide]: 5.63 µM; for `COc1cc(NC(=O)CSc2nc3c(C)cncc3[nH]2)ccc1O` [Compound 18, N-(4-hydroxy-3-methoxyphenyl)-2-((7-methyl-3H-imidazo[4,5-c]pyridin-2-yl)thio)acetamide]: 8.37 µM. The same measure for `COc1ccc(NC(=O)CSc2nc3c(C)c(C#N)ncc3[nH]2)cc1F` [Compound 93, 2-((6-Cyano-7-methyl-3H-imidazo[4,5-c]pyridin-2-yl)thio)-N-(3-fluoro-4-methoxyphenyl)acetamide]: 0.224 µM; for `COc1ccc(NC(=O)C(C)Sc2nc3cnc(C(F)(F)F)cc3[nH]2)cc1O` (centres unmarked) [Compound 42, N-(3-Hydroxy-4-methoxyphenyl)-2-((6-(trifluoromethyl)-3H-imidazo[4,5-c]pyridin-2-yl)thio)propanamide]: 11.3 µM.

As to `O=C(CSc1nc2cnc(Cl)cc2[nH]1)Nc1cccc(O)c1` [Compound 25, 2-((6-Chloro-1H-imidazo[4,5-c]pyridin-2-yl)thio)-N-(3-hydroxyphenyl)acetamide], the IC50 came to 7.93 µM. On to `COc1ccc(NC(=O)CSc2nc3cnc(Cl)c(C)c3[nH]2)cc1O` [Compound 49, 2-((6-Chloro-7-methyl-1H-imidazo[4,5-c]pyridin-2-yl)thio)-N-(3-hydroxy-4-methoxyphenyl)acetamide], for which the IC50 was 0.667 µM. For `O=C(CSc1nc2cc(C(F)(F)F)ncc2[nH]1)Nc1ccc(OC(F)(F)F)c(O)c1` [Compound 61, N-(3-Hydroxy-4-(trifluoromethoxy)phenyl)-2-((6-(trifluoromethyl)-3H-imidazo[4,5-c]pyridin-2-yl)thio)acetamide], the IC50 was 22.6 µM. In the case of `COc1ccc(NC(=O)CSc2nc3cc(Cl)ncc3[nH]2)cc1OCC(F)(F)F` [Compound 89] it was 11.3 µM. In the case of `COc1c(F)cc(NC(=O)CSc2nc3cnc(C(F)(F)F)cc3[nH]2)cc1F` [Compound 44, N-(3,5-Difluoro-4-methoxyphenyl)-2-((6-(trifluoromethyl)-3H-imidazo[4,5-c]pyridin-2-yl)thio)acetamide] it was 10.2 µM.

Turning to `COc1ccc(NC(=O)CSc2nc3c(C)cncc3[nH]2)cc1O` [Compound 16, N-(3-hydroxy-4-methoxyphenyl)-2-((7-methyl-1H-imidazo[4,5-c]pyridin-2-yl)thio)acetamide], the IC50 was 2.29 µM.

Take `COc1ccc(NC(=O)CSc2nc3cnc(Cl)cc3[nH]2)cc1OC(F)(F)F` [Compound 35, 2-((6-chloro-1H-imidazo[4,5-c]pyridin-2-yl)thio)-N-(4-methoxy-3-(trifluoromethoxy)phenyl)acetamide]: the IC50 turned out to be 40.7 µM. In the case of `COc1ccc(NC(=O)CSc2nc3cc(Cl)ncc3[nH]2)cc1N` [Compound 82, N-(3-Amino-4-methoxyphenyl)-2-((6-chloro-3H-imidazo[4,5-c]pyridin-2-yl)thio)acetamide] it was 6.02 µM. In the case of `N#Cc1cc2nc(SCC(=O)Nc3ccc(F)c(O)c3)[nH]c2cn1` [Compound 69, 2-((6-Cyano-3H-imidazo[4,5-c]pyridin-2-yl)thio)-N-(4-fluoro-3-hydroxyphenyl)acetamide] it was 0.216 µM.

As usually defined, the IC50 is the concentration needed to halve the response being measured.

The record behind these values is patent US10689376B2, “Substituted-3H-imidazo [4,5-c] pyridine and 1H-pyrrolo[2,3-c]pyridine series of novel ectonucleotide pyrophosphatase/phosphodiesterase-1 (ENPP1) and stimulator for interferon genes (STING) modulators as cancer immunotherapeutics” (Stingray Therapeutics, Inc., priority 2017, dated 2020).
